Consider one compound from patent US20150004620A1, “METHOD OR DEVICE FOR IDENTIFYING INHIBITOR OF EPITHELIAL MESENCHYMAL TRANSITION” (Agency for Science, Technology and Research, priority 2011, published 2015).

pIC50: −log10 of the molar value.

Common to all, as to format: cell-based
Test [1] deals with E-cadherin. Put plainly: Western blot of E-cadherin in ovarian carcinoma cell lines. To be noted: panel of ovarian carcinoma cell lines, 2 μM for 48 hours vs 0.02% DMSO. As for the experimental part: (§1) FIG. 11 is a western blot image showing the increase in epithelial marker E-cadherin expression and the decrease of mesenchymal marker MMP-13 expression in panel of ovarian carcinoma cell lines treated with AZD0530. Cell lines were treated with 2 μM AZD0530 or 0.02% DMSO control for 48 hours. Thus, FIG. 11 provides an example of possible downstream analysis that may be conducted subsequent to the detection of possible inhibitor by the method as described herein. In this figure, western blot analysis was used to validate the possible inhibitor detected by the method as described herein.
(§2) For western blot experiments with other cell lines, cells are treated either with AZD0530, such as 2 μM AZD0530 or DMSO, such as 0.02% DMSO control for 48 h. The samples are then processed using the same procedure as described above. The samples were probed with MMP-13, E-cadherin, plakoglobin (Cell Signaling), α-tubulin, and β-actin (Cell Signaling) antibodies.

Test [2] relates to E-cadherin. Put plainly: Western blot of EMT marker E-cadherin in growth factor-treated NBT-II cells. To be noted: NBT-II cells, 0.5, 2 and 8 μM compound overnight, then EGF, HGF or IGF-1 for 24 h (FIG. 7). As for the experimental part: NBT-II cells were treated with compounds at 0.5, 2 and 8 μM overnight and incubated with a growth factor for 24 h. Cells were lysed with protease/phosphatase inhibitor-containing RIPA buffer. Proteins are separated in 8% polyacrylamide gels and transferred to PDVF membranes. Membranes were blocked in 5% BSA and incubated at 4° C. overnight with MMP-13 (Millipore), E-cadherin (BD) and α-tubulin (Sigma) primary antibodies. Membranes were then developed with HRP-conjugated secondary antibody (Amersham) and ECL substrate (Millipore).
The possibilities that ALK5, MEK, PI3K and SRC targeting compounds could modulate the expression of EMT markers, such as E-cadherin and matrix metalloproteinase-13 (MMP-13) under EMT-activated conditions were also investigated (FIG. 7). With the exception of P13K inhibitor GDC-0941, the compounds in general abrogated MMP-13 expression in growth factor-treated samples, PI3K inhibition has been previously shown to augment MMP-13 expression. […] These findings are consistent with previous reports showing that ALK5, MEK and SRC play a role in cell motility and tumor progression, while PI3K predominately regulates cell proliferation.
A general note: In western blotting, separated proteins are transferred to a membrane and probed.

The subject of test [3] is MMP-13. Put plainly: Western blot of MMP-13 in ovarian carcinoma cell lines. To be noted: panel of ovarian carcinoma cell lines, 2 μM for 48 hours vs 0.02% DMSO. On the procedure: as §1, §2
In test [4] the test system is EGF-induced EMT in NBT-II cells. Put plainly: EMT spot migration assay, EGF-induced. To be noted: EGF-induced EMT (20 ng/ml EGF), NBT-II cells, CDR dose response from 6.67 μM; read-out: Cell Dispersion IC 50, EGF. On the procedure: NBT-II cells were stably transfected with mcherry-fluorescent H2B and maintained in DMEM supplemented with 10% fetal bovine serum (FBS, Thermo Scientific), 1 μg/ml puromycin (Sigma) and 100 units/ml penicillin-streptomycin (1× pen-strep, Invitrogen). Cells were grown to 80% confluency in tissue culture flasks prior to plating. Cells were trypsinized and concentrated to a density of 5×10^6 cell/ml in CO2-independent medium (Invitrogen) supplemented with 10% FBS. The cell suspension was then evenly dispersed into the wells of two columns of a 96-well V-bottom plate. Using a robotic liquid-handling station (Bravo, Agilent Technologies), 0.5 μl of cell suspension was transferred from the two columns of the cell suspension-loaded plate and deposited into the center of the wells of two columns of a 96-well clear bottom, black assay plate (Corning). This process was repeated six times so that all 96 wells of the assay plate were deposited with a cell suspension spot. The plate was then sealed to minimize evaporation of the cell suspension spots and transferred to a 37° C., 5% CO2 incubator to allow for cells to attach to the culture surface. After 1 hour, the plate was gently washed with medium once to remove unattached cells, refreshed with 100 μl of assay medium (DMEM supplemented with 10% FBS and 1× pen-strep), and then further incubated to allow for cell-cell contacts to establish in the cell colonies.
Four tiled, non-overlapping images were acquired around the center of each well, and were then stitched together during image analysis to generate a montage covering an area of 3.2 mm×3.2 mm. These images (T1) represent the initial state of the cell colonies before EMT induction.
After the T1 images were acquired, 1 μl of test compounds were transferred from compound stock plates and added to the assay plates. Appropriate negative controls (1 μl DMSO) and positive controls (1 μl 1.0 mM compound in DMSO) were also added into columns 1 and 12 of each assay plate, respectively. […] The cultures were then further incubated overnight.
The next day, 50 μl of growth factor-containing medium was added to each well of the assay-plates. For each of the growth factor-induced EMT spot migration assays, the final growth factor concentrations in each well is optimized to be 20 ng/ml EGF (Sigma), 4 ng/ml HGF (Calbiochem) or 150 ng/ml IGF-1 (R&D Systems), respectively. The cultures were then incubated for another 24 hours, to allow for EMT and sufficient cell motility/dispersion to occur in the cell colonies.
Finally, the cell colonies were imaged again using the microplate imager, as described above. These images (T2) represent the final state of the cell colonies after compound treatment and EMT induction. The acquired T1 and T2 image sets for each assay plate were then sent for image analysis.
The acquisition of each well was obtained by four adjacent field images with no interstice in between. Each field image was loaded and nuclei were initially segmented independently of other fields to prevent artifact at the field border. Nuclei segmentation was achieved by combining a wavelet transform which is robust to noise and unhomogeneous background, and a watershed algorithm based on intensities to split nuclei clusters. Mask of nuclei segmentation of the different fields were then stitched together in order to obtain a large segmentation of the whole well. Cell bodies were estimated by applying a morphological dilation on the nucleus segmentation using a disk of 30 pixels (48 μm) in diameter. In cells that are contiguous, such as in a cell colony, nuclei segmentation dilation will result in the formation of continuous region areas with surrounding cells which can then be identified as colonies.
Total cell number and spreading coefficient values for each well were then exported into an Excel sheet.

Test [5] has as its system ovarian carcinoma cell lines. Put plainly: Cell movement tracking time-lapse videoscopy. To be noted: 2 μM for 48 hours, tracked for 24 hours. On the procedure:
Cells were maintained in RMPI supplemented with 10% fetal bovine serum and 1× pen-strep. Cells were grown to 80% confluency in tissue culture flasks prior to plating. Cells were trysinized and plated onto a 12-well plate (BD) at a low density of 2000 cells per well in 1 ml of RMPI. Each ovarian cell line was seeded into two wells of a 12 well tissue culture plate. For each ovarian cell line, one of the two wells was treated with 2 μM AZD0530 and the other well treated with 0.02% DMSO control for 48 hours. Cells were imaged using a time-lapse video microscope incubator system (Leica) controlled by Metamorph software (Molecular Devices). Time-lapse images were taken at 5 min intervals for 24 hours and saved as tiff format. Each individual tiff images were compiled into stack images using the stack creation function in Metamorph. Each cell was tracked using the particle tracking function in Metamorph software. The tracking function detected and recorded the x and y coordinates of the cell being tracked for each image in the stack. The x and y coordinates were used to plot the track of the individual cell in excel. The total distance travelled, displacement and average velocity of the tracked cell were then tabulated.

Setting [6] is: panel of ovarian carcinoma cell lines.

As to `CN1CCN(CCOc2cc(OC3CCOCC3)c3c(Nc4c(Cl)ccc5c4OCO5)ncnc3c2)CC1` [AZD0530], the “Epithelial marker E-cadherin expression” value in test [1] is “increase”. Besides, the E-cadherin expression entry in test [2] is recorded as “augment E-cadherin expression”. Also, in test [3], the “Mesenchymal marker MMP-13 expression” value is on record as “decrease”. Moreover, the pIC50 in test [4] is 6.25. The “Mobility (individual cell tracks)” value in test [5] (ovarian carcinoma cell lines) is reported as “suppression of the mobility”. Besides, in test [5] (setting [6]), the “Average displacement cells migrate” value is “decrease” and the “Average velocity of cell migrations” value is listed as “decrease”.
